Assay results taken from US20240158446A1, “CYCLIC COMPOUND HAVING SELECTIVE INHIBITORY ACTION ON KRAS OVER HRAS AND NRAS” (CHUGAI SEIYAKU KABUSHIKI KAISHA, priority 2021, published 2024).
Read-outs that look alike come from different tables or passages of the source. *1 amine or outer side, *2 acyl side, *3 side chain or, on linkers, in order; H or OH if unused. Where a SMILES comes first, the peptide text is derived from it. Bridges are numbered along the chain shown (N, C = ends). [ ]: non-standard residue; d: D form. The star is where a group is joined. hPhe(3,5-F2-4-CF3) = N[C@@H](CCc1cc(F)c(C(F)(F)F)c(F)c1)C(=O)O; hPhe(3-Cl-4-CF3) = N[C@@H](CCc1ccc(C(F)(F)F)c(Cl)c1)C(=O)O; NPrPhe(4-CF3) = CCCN[C@@H](Cc1ccc(C(F)(F)F)cc1)C(=O)O; NEtPhe(4-CF3) = CCN[C@@H](Cc1ccc(C(F)(F)F)cc1)C(=O)O; hPhe(3,4-Cl2) = N[C@@H](CCc1ccc(Cl)c(Cl)c1)C(=O)O; Piperazinyl(4-(3-oxetanyl)) = C1OCC1N1CCN(*)CC1; NMeGly(cPent) = CN[C@H](C(=O)O)C1CCCC1; X8 = C[C@@](N[*:1])(C(=O)[*:2])C1CC1; NMeF = CN[C@@H](Cc1ccccc1)C(=O)O; NMeD = CN[C@@H](CC(=O)O)C(=O)O; NMeL = CN[C@@H](CC(C)C)C(=O)O; Morpholide = C1CN(*)CCO1; NMeA = CN[C@@H](C)C(=O)O; Ac5c = NC1(C(=O)O)CCCC1; Aze = O=C(O)[C@@H]1CCN1; X24 = CC1(C)CCN(*)C1; NEtG = CCNCC(=O)O; Sar = CNCC(=O)O

Assays:
[1] = molecular target: GDP-bound KRAS wild-type protein (Homo sapiens, UniProt P01116); experiment: Binding to KRAS by surface plasmon resonance (SPR), Single Cycle Kinetics; conditions: GDP-bound KRAS wild-type protein, read-out: KRAS KD
[2] = molecular target: GDP-bound NRAS wild-type protein (Homo sapiens, UniProt P01111); experiment: Binding to NRAS by surface plasmon resonance (SPR), Single Cycle Kinetics; conditions: for NRAS/KRAS (ratio of KD value for NRAS to KD value for KRAS) / NRAS/KRAS (ratio of KD value with respect to NRAS to KD value with respect to KRAS): SPR, GDP-bound NRAS wild-type protein vs GDP-bound KRAS wild-type protein
[3] = molecular target: GDP-bound HRAS wild-type protein (Homo sapiens, UniProt P01112); experiment: Binding to HRAS by surface plasmon resonance (SPR), Single Cycle Kinetics; conditions: for HRAS/KRAS (ratio of KD value for HRAS to KD value for KRAS) / HRAS/KRAS (ratio of KD value with respect to HRAS to KD value with respect to KRAS): SPR, GDP-bound HRAS wild-type protein vs GDP-bound KRAS wild-type protein
[4] = SPR Single Cycle Kinetics, 1:1 binding model

Sequence of GDP-bound NRAS wild-type protein (P01111 whole entry): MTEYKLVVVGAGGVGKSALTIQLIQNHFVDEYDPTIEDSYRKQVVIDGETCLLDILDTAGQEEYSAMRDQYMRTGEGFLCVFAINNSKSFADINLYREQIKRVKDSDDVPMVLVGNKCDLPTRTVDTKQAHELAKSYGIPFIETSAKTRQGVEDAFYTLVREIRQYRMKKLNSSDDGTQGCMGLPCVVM
Sequence of GDP-bound KRAS wild-type protein (P01116 whole entry): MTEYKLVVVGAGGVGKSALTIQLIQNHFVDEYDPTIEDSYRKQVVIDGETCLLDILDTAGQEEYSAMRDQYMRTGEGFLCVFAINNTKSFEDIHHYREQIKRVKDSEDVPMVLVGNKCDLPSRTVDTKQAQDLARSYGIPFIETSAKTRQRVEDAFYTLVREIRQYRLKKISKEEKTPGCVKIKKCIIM
Sequence of GDP-bound HRAS wild-type protein (P01112 whole entry): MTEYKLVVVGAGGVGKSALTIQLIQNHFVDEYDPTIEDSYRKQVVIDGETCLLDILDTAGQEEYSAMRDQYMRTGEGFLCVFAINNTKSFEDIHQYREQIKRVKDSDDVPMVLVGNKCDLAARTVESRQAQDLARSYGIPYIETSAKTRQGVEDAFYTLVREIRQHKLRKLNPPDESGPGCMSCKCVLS

Kd [1, 4]	Kd ([1]; SPR, Single Cycle Kinetics)	SMILES	NRAS/KRAS (ratio of KD value with respect to GDP-bound NRAS wild-type protein to KD value with respect to KRAS) ([2]; SPR KD ratio NRAS/KRAS, class symbols)	HRAS/KRAS (ratio of KD value with respect to GDP-bound HRAS wild-type protein to KD value with respect to KRAS) ([3]; SPR KD ratio HRAS/KRAS, class symbols)	NRAS/KRAS (ratio of KD value for NRAS to KD value for KRAS) [2]	HRAS/KRAS (ratio of KD value for HRAS to KD value for KRAS) [3]	NRAS/KRAS (ratio of KD value with respect to NRAS to KD value with respect to KRAS) [2]	HRAS/KRAS (ratio of KD value with respect to HRAS to KD value with respect to KRAS) [3]
0.19 nM		CCO[C@@H]1C[C@H]2C(=O)NC3(CC(C)(C)C3)C(=O)N(C)[C@@H](C3CCCC3)C(=O)N(C)[C@H](C(=O)N(C)CC)CC(=O)N(C)[C@@H](COC)C(=O)N[C@@H]([C@@H](C)CC)C(=O)N(C)CC(=O)N(C)[C@H]3C/C=C\CCN(C3=O)[C@@H](Cc3ccc(C(F)(F)F)cc3)C(=O)N(C)CC(=O)N[C@@H](CCc3ccc(Cl)c(Cl)c3)C(=O)N2C1 [PP2835]	A (a compound having 10 or more and less than 20 is denoted as A)	A (a compound having 10 or more and less than 20 is denoted as A)				
0.98 nM		CCCN1C(=O)[C@@H]2CCN2C(=O)CN(C)C(=O)[C@H]([C@@H](C)CC)NC(=O)[C@H](CC(C)C)N(C)C(=O)C[C@@H](C(=O)N2CCOCC2)N(C)C(=O)[C@H](C2CCCC2)N(C)C(=O)[C@](C)(C2CC2)NC(=O)[C@@H]2CCCN2C(=O)[C@H](CCc2cc(F)c(C(F)(F)F)c(F)c2)NC(=O)CN(C)C(=O)[C@@H]1Cc1ccc(C(F)(F)F)cc1 [PP0791] ([NMeL]I[Sar][Aze][NPrPhe(4-CF3)][Sar][hPhe(3,5-F2-4-CF3)]P[X8][NMeGly(cPent)][NMeD]-Morpholide; lactam N-11)					C (A compound having a KD ratio of 0.1 or more and less than 3 is denoted as C)	B (a compound having 3 or more and less than 10 is denoted as B)
	0.36 nM	CC[C@H](C)[C@@H]1NC(=O)[C@H](CC(C)C)N(C)C(=O)C[C@@H](C(=O)N2CCOCC2)N(C)C(=O)[C@H](C2CCCC2)N(C)C(=O)C2(CCC2)NC(=O)[C@@H]2[C@@H](OCC3CCCC3)CCN2C(=O)[C@H](CCc2cc(F)c(C(F)(F)F)c(F)c2)NC(=O)CN(C)C(=O)[C@H](Cc2ccc(C(F)(F)F)cc2)N2CCCC[C@@H](C2=O)N(C)C(=O)CN(C)C1=O [PP1073]			B (a compound having 3 or more and less than 10 is denoted as B)	B (a compound having 3 or more and less than 10 is denoted as B)		

Continued, compound first:

SMILES	Kd [1, 4]	Kd ([1]; SPR, Single Cycle Kinetics)	NRAS/KRAS (ratio of KD value with respect to GDP-bound NRAS wild-type protein to KD value with respect to KRAS) ([2]; SPR KD ratio NRAS/KRAS, class symbols)	HRAS/KRAS (ratio of KD value with respect to GDP-bound HRAS wild-type protein to KD value with respect to KRAS) ([3]; SPR KD ratio HRAS/KRAS, class symbols)	NRAS/KRAS (ratio of KD value for NRAS to KD value for KRAS) [2]	HRAS/KRAS (ratio of KD value for HRAS to KD value for KRAS) [3]	NRAS/KRAS (ratio of KD value with respect to NRAS to KD value with respect to KRAS) [2]	HRAS/KRAS (ratio of KD value with respect to HRAS to KD value with respect to KRAS) [3]
CCCN1C(=O)CN(C)C(=O)CN(C)C(=O)[C@H]([C@@H](C)CC)NC(=O)[C@H](CC(C)C)N(C)C(=O)C[C@@H](C(=O)N2CCC(C)(C)C2)N(C)C(=O)[C@H](C2CCCC2)N(C)C(=O)C2(CCCC2)NC(=O)[C@@H]2CCCN2C(=O)[C@H](CCc2ccc(C(F)(F)F)c(Cl)c2)NC(=O)CN(C)C(=O)[C@@H]1Cc1ccc(C(F)(F)F)cc1 [PP0177] ([NMeL]I[Sar][Sar][NPrPhe(4-CF3)][Sar][hPhe(3-Cl-4-CF3)]P[Ac5c][NMeGly(cPent)][NMeD]-X24; lactam N-11)	0.55 nM				B (a compound having 3 or more and less than 10 is denoted as B)	C (A compound having a KD ratio of 0.1 or more and less than 3 is denoted as C)		
CCCN1C(=O)[C@@H]2CCN2C(=O)[C@H](C)N(C)C(=O)[C@H]([C@@H](C)CC)NC(=O)[C@H](CC(C)C)N(C)C(=O)C[C@@H](C(=O)N2CCN(C3COC3)CC2)N(C)C(=O)[C@H](C2CCCC2)N(C)C(=O)C2(CCCC2)NC(=O)[C@@H]2CCCN2C(=O)[C@H](CCc2ccc(C(F)(F)F)c(Cl)c2)NC(=O)CN(C)C(=O)[C@@H]1Cc1ccc(C(F)(F)F)cc1 [PP0184] ([NMeL]I[NMeA][Aze][NPrPhe(4-CF3)][Sar][hPhe(3-Cl-4-CF3)]P[Ac5c][NMeGly(cPent)][NMeD]-{Piperazinyl(4-(3-oxetanyl))}; lactam N-11)	0.32 nM				C (A compound having a KD ratio of 0.1 or more and less than 3 is denoted as C)	B (a compound having 3 or more and less than 10 is denoted as B)		
CC[C@H](C)[C@@H]1NC(=O)[C@H](CC(C)C)NC(=O)C[C@@H](C(=O)N2CCOCC2)N(C)C(=O)[C@H](C2CCCC2)N(C)C(=O)C2(CCCC2)NC(=O)[C@@H]2CCCN2C(=O)[C@H](CCc2cc(F)c(C(F)(F)F)c(F)c2)NC(=O)CN(C)C(=O)[C@H](Cc2ccc(C(F)(F)F)cc2)N2CCCCC[C@@H](C2=O)N(C)C(=O)CN(C)C1=O [PP0516]	10 nM						B (a compound having 3 or more and less than 10 is denoted as B)	B (a compound having 3 or more and less than 10 is denoted as B)
CCCN1C(=O)CN(C)C(=O)CN(CC)C(=O)[C@H]([C@@H](C)CC)NC(=O)[C@H](CC(C)C)N(C)C(=O)C[C@@H](C(=O)N2CCOCC2)N(C)C(=O)[C@H](C2CCCC2)N(C)C(=O)C2(CCCC2)NC(=O)CN(C)C(=O)[C@H](CCc2ccc(C(F)(F)F)c(Cl)c2)NC(=O)CN(C)C(=O)[C@@H]1Cc1ccc(C(F)(F)F)cc1 [PP0300] ([NMeL]I[NEtG][Sar][NPrPhe(4-CF3)][Sar][hPhe(3-Cl-4-CF3)][Sar][Ac5c][NMeGly(cPent)][NMeD]-Morpholide; lactam N-11)	1.4 nM				B (a compound having 3 or more and less than 10 is denoted as B)	C (A compound having a KD ratio of 0.1 or more and less than 3 is denoted as C)		
CC[C@H](C)[C@@H]1NC(=O)[C@H](CC(C)C)N(C)C(=O)C[C@@H](C(=O)N2CCOCC2)N(C)C(=O)[C@H](C2CCCC2)N(C)C(=O)C2(CCCC2)NC(=O)[C@@H]2CCCN2C(=O)[C@H](CCc2ccc(C(F)(F)F)c(Cl)c2)NC(=O)CN(C)C(=O)[C@H](Cc2ccccc2)N(C)C(=O)[C@@H]2CCN2C(=O)[C@H](C)N(C)C1=O [PP0011] ([NMeL]I[NMeA][Aze][NMeF][Sar][hPhe(3-Cl-4-CF3)]P[Ac5c][NMeGly(cPent)][NMeD]-Morpholide; lactam N-11)	0.3 nM				C (A compound having a KD ratio of 0.1 or more and less than 3 is denoted as C)	C (A compound having a KD ratio of 0.1 or more and less than 3 is denoted as C)		
CC[C@H](C)[C@@H]1NC(=O)[C@H](CC(C)C)N(C)C(=O)C[C@@H](C(=O)N2CCOCC2)N(C)C(=O)[C@H](C2CCCC2)N(C)C(=O)C2(CCCC2)NC(=O)[C@@H]2CCCN2C(=O)[C@H](CCc2ccc(Cl)c(Cl)c2)NC(=O)CN(C)C(=O)[C@H](Cc2ccc(C(F)(F)F)cc2)N(CC)C(=O)CN(C)C(=O)CN(C)C1=O [PP0237] ([NMeL]I[Sar][Sar][NEtPhe(4-CF3)][Sar][hPhe(3,4-Cl2)]P[Ac5c][NMeGly(cPent)][NMeD]-Morpholide; lactam N-11)	0.28 nM				B (a compound having 3 or more and less than 10 is denoted as B)	C (A compound having a KD ratio of 0.1 or more and less than 3 is denoted as C)		
